According to US20170121315A1, “HETEROBICYCLICALLY SUBSTITUTED 4-OXOBUTANE ACID DERIVATIVES AND USE THEREOF” (priority 2014, published 2017):

Assays:
Format in all cases: biochemical
[1] = target: T1, MMP-9 (Homo sapiens, UniProt P14780); assay: In vitro MMP-9 inhibition test; details: human MMP-9
T1 construct: purchased R&D Systems 911-MP
Source text: (§1) The MMP-mediated amidolytic cleavage of a suitable peptide substrate leads to an increase in fluorescent light here too. The signal intensity of the fluorescent light is directly proportional to the enzyme activity. The active concentration of a test compound at which half the enzyme is inhibited (50% signal intensity of the fluorescent light) is reported as the IC50 value.
(§2) Recombinant MMP-9 (R&D Systems, 911-MP) is chemically activated in accordance with the manufacturer's instructions using APMA. 1 μl of the test compound to be analysed (as a solution in DMSO, suitable concentrations e.g. 1 nM to 30 μM) is pipetted into 24 μl of activated enzyme (final concentration e.g. 0.1 nM) in reaction buffer (50 mM Tris/HCl pH 7.5, 10 mM CaCl2, 150 mM NaCl, 0.05% Brij®-35) in a white 384-hole microtiter plate (MTP). The enzymatic reaction is started by adding the intramolecularly quenched Mca-Pro-Leu-Gly-Leu-Dpa(Dnp)-Ala-Arg-NH2 substrate (final concentration e.g. 10 μM; R&D Systems, ES-001), so as to result in a total test volume of 50 μl. The course of the MMP-9 reaction is measured by measuring the fluorescence intensity (excitation 320 nm, emission 410 nm) over a suitable period of time (e.g. over 120 min at a temperature of 32° C.).

[2] = target: T2, MMP-3 (Homo sapiens, UniProt P08254); assay: In vitro MMP-3 inhibition test; details: human MMP-3
T2 construct: purchased R&D Systems 513-MP
Source text: as §1
as §2, with “MMP-3” for “MMP-9”, “513-MP)” for “911-MP)”, “2” for “0.1”, “Mca-Arg-Pro-Lys-Pro-Val-Glu-Nval-Trp-Arg-Lys(Dnp)-NH2” for “Mca-Pro-Leu-Gly-Leu-Dpa(Dnp)-Ala-Arg-NH2”, “ES-002),” for “ES-001),”

[3] = target: T3, MMP-14 (Homo sapiens, UniProt P50281); assay: In vitro MMP-14 inhibition test; details: human MMP-14
T3 construct: purchased R&D Systems 918-MP
Source text: as §1
Recombinant MMP-14 (R&D Systems, 918-MP) is enzymatically activated in accordance with the manufacturer's instructions using recombinant furin (R&D Systems, 1503-SE). 1 μl of the test compound to be analysed (as a solution in DMSO, suitable concentrations e.g. 1 nM to 30 μM) is pipetted into 24 μl of activated enzyme (final concentration e.g. 0.5 nM) in reaction buffer (50 mM Tris/HCl pH 7.5, 10 mM CaCl2, 150 mM NaCl, 0.05% Brij®-35) in a white 384-hole microtiter plate (MTP). The enzymatic reaction is started by adding the intramolecularly quenched Mca-Lys-Pro-Leu-Gly-Leu-Dpa(Dnp)-Ala-Arg-NH2 substrate (final concentration e.g. 5 μM; R&D Systems, ES-010), so as to result in a total test volume of 50 μl. The course of the MMP-14 reaction is measured by measuring the fluorescence intensity (excitation 320 nm, emission 410 nm) over a suitable period of time (e.g. over 120 min at a temperature of 32° C.).

[4] = target: T4, MMP-1 (Homo sapiens, UniProt P03956); assay: In vitro MMP-1 inhibition test; details: human MMP-1
T4 construct: purchased R&D Systems 901-MP
T4 sequence (P03956 100-469): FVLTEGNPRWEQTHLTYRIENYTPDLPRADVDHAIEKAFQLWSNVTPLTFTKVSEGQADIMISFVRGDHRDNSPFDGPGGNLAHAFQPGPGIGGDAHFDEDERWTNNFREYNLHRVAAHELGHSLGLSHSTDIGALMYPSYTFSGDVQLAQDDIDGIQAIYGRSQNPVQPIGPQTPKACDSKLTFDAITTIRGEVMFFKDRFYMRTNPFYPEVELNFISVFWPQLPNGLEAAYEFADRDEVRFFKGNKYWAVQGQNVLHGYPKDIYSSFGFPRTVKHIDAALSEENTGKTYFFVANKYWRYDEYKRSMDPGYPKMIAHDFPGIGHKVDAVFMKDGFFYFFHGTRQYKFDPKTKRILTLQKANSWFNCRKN
Source text: as §1
as §2, with “MMP-1” for “MMP-9”, “901-MP)” for “911-MP)”, “2” for “0.1”

T1 sequence (P14780 107-707 limits assumed): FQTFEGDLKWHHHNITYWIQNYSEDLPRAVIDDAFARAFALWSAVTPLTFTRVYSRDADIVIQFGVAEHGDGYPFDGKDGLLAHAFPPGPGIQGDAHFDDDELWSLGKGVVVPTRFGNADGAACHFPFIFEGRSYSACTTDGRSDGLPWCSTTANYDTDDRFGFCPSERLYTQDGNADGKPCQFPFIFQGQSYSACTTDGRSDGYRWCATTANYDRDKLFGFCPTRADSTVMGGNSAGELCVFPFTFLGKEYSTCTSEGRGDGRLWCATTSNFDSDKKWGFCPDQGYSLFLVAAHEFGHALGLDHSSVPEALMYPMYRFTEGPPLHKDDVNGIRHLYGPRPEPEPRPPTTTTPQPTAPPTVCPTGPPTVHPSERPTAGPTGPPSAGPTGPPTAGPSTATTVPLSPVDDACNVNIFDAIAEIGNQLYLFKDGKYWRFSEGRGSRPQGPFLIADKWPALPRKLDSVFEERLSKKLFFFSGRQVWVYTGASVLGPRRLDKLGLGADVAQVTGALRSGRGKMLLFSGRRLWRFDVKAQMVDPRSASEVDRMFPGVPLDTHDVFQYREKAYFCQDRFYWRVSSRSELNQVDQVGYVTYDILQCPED
T2 sequence (P08254 100-477): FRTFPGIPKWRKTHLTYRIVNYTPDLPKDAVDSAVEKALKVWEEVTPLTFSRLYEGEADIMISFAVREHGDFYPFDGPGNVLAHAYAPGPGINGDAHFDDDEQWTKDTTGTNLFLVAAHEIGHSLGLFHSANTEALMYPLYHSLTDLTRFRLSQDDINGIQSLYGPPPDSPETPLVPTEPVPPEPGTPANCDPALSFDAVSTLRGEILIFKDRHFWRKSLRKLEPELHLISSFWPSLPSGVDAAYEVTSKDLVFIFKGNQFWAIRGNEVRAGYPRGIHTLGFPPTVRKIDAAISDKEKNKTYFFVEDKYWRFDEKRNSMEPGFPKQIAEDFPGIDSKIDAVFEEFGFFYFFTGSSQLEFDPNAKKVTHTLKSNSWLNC

Row | SMILES | IC50 [1] [µM] | IC50 [2] [µM] | IC50 [3] [µM] | IC50 [4] [µM]
1 | O=C(CC(CCn1nnc2ccccc2c1=O)C(=O)O)c1coc2cc(OCCC3CCCC3)ccc12 (racemic) [Example 75, (+/−)-4-[6-(2-Cyclopentylethoxy)-1-benzofur-3-yl]-4-oxo-2-[2-(4-oxo-1,2,3-benzotriazin-3(4H)-yl)ethyl]butanoic acid] | 0.45 | > 40 | 6.5 | > 40
2 | CCCCCOc1ccc2c(C(=O)CC(CCn3nnc4ccccc4c3=O)C(=O)O)coc2c1 (racemic) [Example 89, (+/−)-4-Oxo-2-[2-(4-oxo-1,2,3-benzotriazin-3(4H)-yl)ethyl]-4-[6-(pentyloxy)-1-benzofur-3-yl]butanoic acid] | 0.23 | > 40 | 13 | > 40
3 | CCCCCCCOc1ccc2c(C(=O)CC(CCn3nnc4ccccc4c3=O)C(=O)O)coc2c1 (racemic) [Example 101, (+/−)-4-[6-(Heptyloxy)-1-benzofur-3-yl]-4-oxo-2-[2-(4-oxo-1,2,3-benzotriazin-3(4H)-yl)ethyl]butanoic acid] | 0.42 | > 40 | > 40 | > 40
4 | O=C(CC(CCn1nnc2ccccc2c1=O)C(=O)O)c1cc2ccc(OCC3CC3)cc2s1 (racemic) [Example 111, (+/−)-4-[6-(Cyclopropylmethoxy)-1-benzothiophen-2-yl]-4-oxo-2-[2-(4-oxo-1,2,3-benzotriazin-3(4H)-yl)ethyl]butanoic acid] | 1.1 | 9.7 | 6 | > 40
5 | O=C(CC(CCn1nnc2ccccc2c1=O)C(=O)O)c1cc2ccc(OCCc3ccccc3)cc2s1 (racemic) [Example 114, (+/−)-4-Oxo-2-[2-(4-oxo-1,2,3-benzotriazin-3(4H)-yl)ethyl]-4-[6-(2-phenylethoxy)-1-benzothiophen-2-yl]butanoic acid] | 0.24 | 3.2 | 2.1 | > 40
6 | CCCCCOc1ccc2cc(C(=O)CC(CCn3nnc4ccccc4c3=O)C(=O)O)sc2c1 (racemic) [Example 118, (+/−)-4-Oxo-2-[2-(4-oxo-1,2,3-benzotriazin-3(4H)-yl)ethyl]-4-[6-(pentyloxy)-1-benzothiophen-2-yl]butanoic acid] | 1.2 | 16 | 19 | > 40
7 | CCCCCOc1ccc2c(C(=O)CC(CCn3nnc4ccccc4c3=O)C(=O)O)noc2c1 (racemic) [Example 140, (+/−)-4-Oxo-2-[2-(4-oxo-1,2,3-benzotriazin-3(4H)-yl)ethyl]-4-[6-(pentyloxy)-1,2-benzoxazol-3-yl]butanoic acid] | 0.043 | 14 | 3.4 | > 40
8 | O=C(CC(CCn1nnc2ccccc2c1=O)C(=O)O)c1noc2cc(OCC3CCCCC3)ccc12 (racemic) [Example 153, (+/−)-4-[6-(Cyclohexylmethoxy)-1,2-benzoxazol-3-yl]-4-oxo-2-[2-(4-oxo-1,2,3-benzotriazin-3(4H)-yl)ethyl]butanoic acid] | 0.45 | 12 | 5.5 | > 40
9 | O=C(CC(CCn1nnc2ccc(C(F)(F)F)cc2c1=O)C(=O)O)c1noc2cc(OCC3CCOCC3)ccc12 (racemic) [Example 155, (+/−)-4-Oxo-2-{2-[4-oxo-6-(trifluoromethyl)-1,2,3-benzotriazin-3(4H)-yl]ethyl}-4-[6-(tetrahydro-2H-pyran-4-ylmethoxy)-1,2-benzoxazol-3-yl]butanoic acid] | 2.8 | 19 | > 40 | > 40

Second part, the molecule after the results:

Row | IC50 [1] [µM] | IC50 [2] [µM] | IC50 [3] [µM] | IC50 [4] [µM] | SMILES
10 | 0.19 | 15 | 4.9 | > 40 | O=C(CC(CCn1nnc2ccccc2c1=O)C(=O)O)c1noc2cc(OCc3ccc(F)cc3)ccc12 (racemic) [Example 136, (+/−)-4-{6-[(4-Fluorobenzyl)oxy]-1,2-benzoxazol-3-yl}-4-oxo-2-[2-(4-oxo-1,2,3-benzotriazin-3(4H)-yl)ethyl]butanoic acid]
11 | 0.76 | 18 | 2.5 | > 40 | O=C(CC(CCn1nnc2ccccc2c1=O)C(=O)O)c1noc2cc(OCCc3ccccc3)ccc12 (racemic) [Example 144, (+/−)-4-Oxo-2-[2-(4-oxo-1,2,3-benzotriazin-3(4H)-yl)ethyl]-4-[6-(2-phenylethoxy)-1,2-benzoxazol-3-yl]butanoic acid]
12 | 0.17 | 8.9 | 4 | > 40 | O=C(CC(CCn1nnc2ccccc2c1=O)C(=O)O)c1noc2cc(OCc3ccccc3)ccc12 (racemic) [Example 145, (+/−)-4-[6-(Benzyloxy)-1,2-benzoxazol-3-yl]-4-oxo-2-[2-(4-oxo-1,2,3-benzotriazin-3(4H)-yl)ethyl]butanoic acid]
13 | 0.91 | 9.1 | 8.5 | > 40 | O=C(CC(CCn1nnc2ccccc2c1=O)C(=O)O)c1noc2cc(OCc3cccnc3)ccc12 (racemic) [Example 148, (+/−)-4-Oxo-2-[2-(4-oxo-1,2,3-benzotriazin-3(4H)-yl)ethyl]-4-[6-(pyridin-3-ylmethoxy)-1,2-benzoxazol-3-yl]butanoic acid]
14 | 0.65 | 33 | 0.9 | > 40 | O=C(CC(CCn1nnc2ccccc2c1=O)C(=O)O)c1noc2cc(OCC3CC3)ccc12 (racemic) [Example 150, (+/−)-4-[6-(Cyclopropylmethoxy)-1,2-benzoxazol-3-yl]-4-oxo-2-[2-(4-oxo-1,2,3-benzotriazin-3(4H)-yl)ethyl]butanoic acid]
15 | 0.25 | 10 | 26 | > 40 | O=C(CC(CCn1nnc2ccc(C(F)(F)F)cc2c1=O)C(=O)O)c1noc2cc(OCc3ccccc3)ccc12 (racemic) [Example 154, (+/−)-4-[6-(Benzyloxy)-1,2-benzoxazol-3-yl]-4-oxo-2-{2-[4-oxo-6-(trifluoromethyl)-1,2,3-benzotriazin-3(4H)-yl]ethyl}butanoic acid]
